Assay results reported in publication PMC12444563 (ACS Omega, 2025).
Entries after “also recorded” stand apart in the source; their conditions may differ. Starred links: 1 amine or outer side, 2 acyl side, 3 side chain; linkers in the order of their positions; H or OH if unused. Non-standard residues stand in square brackets, D forms with d. Residues, ends and D or L forms follow the SMILES beside them. *: point of attachment. Paclitaxel(2'-OCO-DMEDA) = CC(=O)O[C@H]1C(=O)[C@@]2(C)[C@H]([C@H](OC(=O)c3ccccc3)[C@]3(O)C[C@H](OC(=O)[C@H](OC(=O)N(C)CCN(C)*)[C@@H](NC(=O)c4ccccc4)c4ccccc4)C(C)=C1C3(C)C)[C@]1(OC(C)=O)CO[C@@H]1C[C@@H]2O; Dolaproine = CO[C@@H]([C@@H]1CCCN1)[C@@H](C)C(=O)O; Dil = CC[C@H](C)[C@H](NC)[C@@H](CC(=O)O)OC; Fmoc = O=C(OCC1c2ccccc2-c2ccccc21)*; PABC = O=C(OCc1ccc(N[*:1])cc1)[*:2]; X1 = C[C@@H](N*)[C@@H](O)c1ccccc1; NMeV = CN[C@H](C(=O)O)C(C)C

Assays:
U87MG cancer cell lines = test system: U87MG cancer cell lines; parameters: method as in PMID 37492088; conditions: short-contact time antiproliferative assay; earlier work of the authors; read-out: IC50 against U87MG cancer cell lines; cited from earlier work
[1] = test system: bovine spleen Cathepsin B (SigmaAldrich C6286, ≥10 units/mg protein); assay: activated Cathepsin B (1.12 u/mL) in 20 mM NaOAc, 1 mM EDTA, pH 5.4, with L-cysteine; conditions: 37 °C, up to 24 h
[2] = human plasma (Pooled; Innovative Research); conditions: 37 °C, up to 4 hours
[3] = human liver S9 fraction (male, pooled, Xeno-tech); conditions: 37 °C, up to 90 minutes
[4] = rat plasma (Strain: Sprague Dawley; Innovative Research); conditions: 37 °C, up to 4 hours
[5] = rat liver S9 fraction (male, pooled, Xeno-tech); conditions: 37 °C, up to 90 minutes
[6] = test system: Cathepsin B (SigmaAldrich C6286); assay: bovine spleen Cathepsin B in 20 mM NaOAc, 1 mM EDTA, pH 5.4, activated with L-cysteine; conditions: 37 °C, up to 24 h

Compound | IC50 (U87MG cancer cell lines) | cleaved bond [1] | fragment found [1] | not cleaved [2] | not cleaved [3] | not cleaved [4] | not cleaved [1] | not cleaved [5] | fragment found [6]
CC[C@H](C)[C@@H]([C@@H](CC(=O)N1CCC[C@H]1[C@H](OC)[C@@H](C)C(=O)N[C@H](C)[C@@H](O)c1ccccc1)OC)N(C)C(=O)[C@@H](NC(=O)[C@@H](NC)C(C)C)C(C)C [MMAE, monomethyl auristatin E] (H-[NMeV]V[Dil][Dolaproine]-X1) | 2130 nM | – | – | – | – | – | – | – | –
Fmoc-GFLG-PABC-diamine-PTX (Fmoc-GFLG[PABC]-{Paclitaxel(2'-OCO-DMEDA)}; SMILES CC(=O)O[C@H]1C(=O)[C@@]2(C)[C@H]([C@H](OC(=O)c3ccccc3)[C@]3(O)C[C@H](OC(=O)[C@H](OC(=O)N(C)CCN(C)C(=O)OCc4ccc(NC(=O)CNC(=O)[C@H](CC(C)C)NC(=O)[C@H](Cc5ccccc5)NC(=O)CNC(=O)OCC5c6ccccc6-c6ccccc65)cc4)[C@@H](NC(=O)c4ccccc4)c4ccccc4)C(C)=C1C3(C)C)[C@]1(OC(C)=O)CO[C@@H]1C[C@@H]2O) | – | Gly-Phe, 2 min; also recorded: Gly-PABC | diamine-PTX (fragment II) | 93.9% remaining at 240 min | 95.232% remaining at 90 min | 103.3% remaining at 240 min | – | – | –
Fmoc-GPLG-PABC-diamine-PTX | – | Gly-PABC, first_seen, 2 min | diamine-PTX (fragment II), 2 min; also recorded: free PTX, 24 h | 100% of residual compound after 4 h (Table S7: 112.1% at 240 min) | more than 94% intact after 1.5 h (Table S7: 94.986% at 90 min) | 100% of residual compound after 4 h (Table S7: 103.0% at 240 min) | no cleavage between Gly and Pro residues was observed throughout the experiment time | more than 94% intact after 1.5 h (Table S7: 94.464% at 90 min) | –
Fmoc-VA-PABC-diamine-PTX | – | – | PABC-diamine-PTX (fragment I); also recorded: diamine-PTX (fragment II) | 107.1% remaining at 240 min | – | 108.0% remaining at 240 min | – | – | PABC-diamine-PTX (fragment I)
Fmoc-VCit-PABC-diamine-PTX | – | – | PABC-diamine-PTX (fragment I); also recorded: diamine-PTX (fragment II) | – | – | 118.1% remaining at 240 min | – | – | PABC-diamine-PTX (fragment I)
